What follows are compounds tested against full-length human ATR protein (Homo sapiens (Human), UniProt Q13535) (assay: Binding assay ATR (TR-FRET tracer displacement)). Settings: tracer A, TR-FRET; read-out: ATR binding (tracer A) IC50.
How it was run: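 Full-length human GST-ATR co-purified with ATRIP, pre-complexed 30 min at 22 °C with anti-GST-Tb antibody, then pre-bound with compound 10 min. Tracer A or B added (2 µl of 100 nM solution), 30 min at 22 °C.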

full-length human ATR protein, sequence (Q13535 other isoform, or with tags, fused parts or gaps): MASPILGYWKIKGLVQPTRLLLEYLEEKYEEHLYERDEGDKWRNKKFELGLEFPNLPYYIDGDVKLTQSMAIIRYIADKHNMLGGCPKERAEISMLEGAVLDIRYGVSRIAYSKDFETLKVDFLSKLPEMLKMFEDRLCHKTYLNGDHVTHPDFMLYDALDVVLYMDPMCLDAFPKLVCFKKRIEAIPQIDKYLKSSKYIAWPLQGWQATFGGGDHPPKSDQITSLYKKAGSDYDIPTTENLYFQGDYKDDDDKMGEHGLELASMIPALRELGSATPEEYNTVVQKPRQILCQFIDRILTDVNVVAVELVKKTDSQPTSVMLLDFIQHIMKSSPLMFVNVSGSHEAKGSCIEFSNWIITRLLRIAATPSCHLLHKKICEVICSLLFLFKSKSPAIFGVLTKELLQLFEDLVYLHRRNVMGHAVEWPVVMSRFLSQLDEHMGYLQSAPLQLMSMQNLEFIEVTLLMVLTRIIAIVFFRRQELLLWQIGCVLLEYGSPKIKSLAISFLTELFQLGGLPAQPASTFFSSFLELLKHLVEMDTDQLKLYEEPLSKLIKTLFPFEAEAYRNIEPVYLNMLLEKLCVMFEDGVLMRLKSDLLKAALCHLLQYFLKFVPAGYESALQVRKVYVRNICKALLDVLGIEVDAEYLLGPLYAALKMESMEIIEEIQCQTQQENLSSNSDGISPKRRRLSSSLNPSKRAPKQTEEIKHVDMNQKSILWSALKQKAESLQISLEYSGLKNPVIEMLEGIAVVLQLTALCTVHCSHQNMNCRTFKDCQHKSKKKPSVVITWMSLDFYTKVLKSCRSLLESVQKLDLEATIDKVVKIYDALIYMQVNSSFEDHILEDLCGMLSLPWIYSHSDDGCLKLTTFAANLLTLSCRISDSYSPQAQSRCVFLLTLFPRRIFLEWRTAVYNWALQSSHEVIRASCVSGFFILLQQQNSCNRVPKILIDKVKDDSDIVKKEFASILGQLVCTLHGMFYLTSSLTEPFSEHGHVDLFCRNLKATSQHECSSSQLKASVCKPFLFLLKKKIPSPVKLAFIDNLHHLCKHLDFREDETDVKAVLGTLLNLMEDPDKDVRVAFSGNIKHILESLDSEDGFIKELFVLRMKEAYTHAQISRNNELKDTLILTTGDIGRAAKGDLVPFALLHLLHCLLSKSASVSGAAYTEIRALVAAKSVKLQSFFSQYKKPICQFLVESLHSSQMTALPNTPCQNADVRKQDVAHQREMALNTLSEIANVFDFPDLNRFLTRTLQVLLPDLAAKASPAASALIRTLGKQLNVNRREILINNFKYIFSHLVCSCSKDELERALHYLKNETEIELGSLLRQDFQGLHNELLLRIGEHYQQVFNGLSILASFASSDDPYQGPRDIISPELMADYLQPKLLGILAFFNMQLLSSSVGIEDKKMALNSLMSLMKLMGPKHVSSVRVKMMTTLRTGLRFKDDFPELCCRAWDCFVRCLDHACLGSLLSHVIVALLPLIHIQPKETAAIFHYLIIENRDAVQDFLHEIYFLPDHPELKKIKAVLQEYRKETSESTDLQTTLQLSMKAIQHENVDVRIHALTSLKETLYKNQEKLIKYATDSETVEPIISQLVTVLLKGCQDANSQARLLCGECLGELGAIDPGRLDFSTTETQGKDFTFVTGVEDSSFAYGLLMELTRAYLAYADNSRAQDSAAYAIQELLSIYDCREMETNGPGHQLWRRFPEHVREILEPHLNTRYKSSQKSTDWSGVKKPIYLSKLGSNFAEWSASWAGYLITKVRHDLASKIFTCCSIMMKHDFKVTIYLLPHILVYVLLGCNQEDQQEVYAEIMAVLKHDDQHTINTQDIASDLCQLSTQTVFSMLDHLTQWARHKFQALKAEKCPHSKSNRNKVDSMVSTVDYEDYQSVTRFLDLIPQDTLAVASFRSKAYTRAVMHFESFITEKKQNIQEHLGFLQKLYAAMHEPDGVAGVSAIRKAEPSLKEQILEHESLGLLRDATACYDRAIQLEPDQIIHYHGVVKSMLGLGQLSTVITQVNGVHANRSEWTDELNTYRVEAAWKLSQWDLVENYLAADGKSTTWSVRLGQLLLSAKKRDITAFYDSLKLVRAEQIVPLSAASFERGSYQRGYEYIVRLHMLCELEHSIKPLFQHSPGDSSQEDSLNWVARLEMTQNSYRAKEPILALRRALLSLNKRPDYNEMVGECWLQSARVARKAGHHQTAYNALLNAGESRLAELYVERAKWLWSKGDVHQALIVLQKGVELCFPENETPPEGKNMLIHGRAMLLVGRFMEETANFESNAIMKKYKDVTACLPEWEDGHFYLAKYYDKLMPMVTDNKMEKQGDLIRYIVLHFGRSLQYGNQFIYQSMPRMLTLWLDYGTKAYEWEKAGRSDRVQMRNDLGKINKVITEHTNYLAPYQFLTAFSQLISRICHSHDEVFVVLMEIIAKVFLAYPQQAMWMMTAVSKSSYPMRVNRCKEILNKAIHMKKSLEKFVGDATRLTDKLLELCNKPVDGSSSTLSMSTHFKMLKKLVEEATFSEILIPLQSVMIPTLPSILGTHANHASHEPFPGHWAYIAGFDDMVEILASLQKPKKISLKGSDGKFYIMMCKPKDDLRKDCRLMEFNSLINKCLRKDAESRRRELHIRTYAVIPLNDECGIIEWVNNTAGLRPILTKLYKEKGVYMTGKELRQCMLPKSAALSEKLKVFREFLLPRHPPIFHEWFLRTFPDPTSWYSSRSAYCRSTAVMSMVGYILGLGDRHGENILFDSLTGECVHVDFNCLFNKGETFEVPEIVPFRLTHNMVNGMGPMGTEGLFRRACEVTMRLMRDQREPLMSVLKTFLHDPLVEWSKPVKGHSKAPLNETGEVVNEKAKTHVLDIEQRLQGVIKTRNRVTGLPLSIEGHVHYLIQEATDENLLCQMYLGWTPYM
full-length human ATR protein, sequence (Q8WXE1 other isoform, or with tags, fused parts or gaps partner): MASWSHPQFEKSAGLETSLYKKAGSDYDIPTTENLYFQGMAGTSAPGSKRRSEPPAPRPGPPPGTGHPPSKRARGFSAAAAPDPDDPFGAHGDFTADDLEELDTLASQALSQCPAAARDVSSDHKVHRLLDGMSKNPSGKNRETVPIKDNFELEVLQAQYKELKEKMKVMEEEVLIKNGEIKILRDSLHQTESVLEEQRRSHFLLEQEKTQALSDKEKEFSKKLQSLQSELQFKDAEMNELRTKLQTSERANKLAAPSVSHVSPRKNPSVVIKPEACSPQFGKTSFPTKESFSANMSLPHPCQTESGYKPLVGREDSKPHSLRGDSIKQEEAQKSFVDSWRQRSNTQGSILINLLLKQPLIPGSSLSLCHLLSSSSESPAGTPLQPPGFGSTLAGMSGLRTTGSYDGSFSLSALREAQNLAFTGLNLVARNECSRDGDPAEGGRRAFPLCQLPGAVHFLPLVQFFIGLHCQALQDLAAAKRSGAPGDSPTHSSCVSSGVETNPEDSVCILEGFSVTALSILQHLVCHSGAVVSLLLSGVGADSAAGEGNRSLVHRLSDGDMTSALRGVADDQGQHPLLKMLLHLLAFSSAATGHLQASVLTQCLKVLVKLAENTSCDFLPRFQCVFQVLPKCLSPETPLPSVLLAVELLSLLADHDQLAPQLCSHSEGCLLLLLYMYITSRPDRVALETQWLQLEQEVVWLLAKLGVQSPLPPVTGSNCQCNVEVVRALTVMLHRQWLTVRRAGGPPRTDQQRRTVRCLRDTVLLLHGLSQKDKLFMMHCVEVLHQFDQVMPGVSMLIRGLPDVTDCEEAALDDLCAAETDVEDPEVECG

First: C[C@@H]1COCCN1c1cc(-c2ccn(C3CCOCC3)n2)c2ccnc(-c3ccn[nH]3)c2n1 [Example 246, 2-[(3R)-3-methylmorpholin-4-yl]-8-(1H-pyrazol-5-yl)-4-[1-(tetrahydro-2H-pyran-4-yl)-1H-pyrazol-3-yl]-1,7-naphthyridine]
Second: C[C@@H]1COCCN1c1cc(-c2cnn(C3CC3)c2)c2ccnc(-c3ccn[nH]3)c2n1 [Example 254, 4-(1-cyclopropyl-1H-pyrazol-4-yl)-2-[(3R)-3-methylmorpholin-4-yl]-8-(1H-pyrazol-5-yl)-1,7-naphthyridine]
The IC50 of the first is 1.5-fold higher: 68 nM for the first, 44.8 nM for the second.

Going from `C[C@@H]1COCCN1c1cc(-c2cnc(F)cc2F)c2ccnc(-c3ccn[nH]3)c2n1` [Example 247, 4-(4,6-difluoropyridin-3-yl)-2-[(3R)-3-methylmorpholin-4-yl]-8-(1H-pyrazol-5-yl)-1,7-naphthyridine] to `C[C@@H]1COCCN1c1cc(-c2ncco2)c2ccnc(-c3ccn[nH]3)c2n1` [Example 270, 2-[(3R)-3-methylmorpholin-4-yl]-4-(1,3-oxazol-2-yl)-8-(1H-pyrazol-5-yl)-1,7-naphthyridine], the IC50 rises from 21.6 nM to 33.7 nM (1.6-fold). The first is the more potent here.

`C[C@@H]1COCCN1c1cc(-c2cnn(C)c2)c2ccnc(-c3ccn[nH]3)c2n1` [Example 248, 2-[(3R)-3-methylmorpholin-4-yl]-4-(1-methyl-1H-pyrazol-4-yl)-8-(1H-pyrazol-5-yl)-1,7-naphthyridine] and `CCn1cc(-c2cc(N3CCOC[C@H]3C)nc3c(-c4ccn[nH]4)nccc23)cn1` [Example 261, 4-(1-ethyl-1H-pyrazol-4-yl)-2-[(3R)-3-methylmorpholin-4-yl]-8-(1H-pyrazol-5-yl)-1,7-naphthyridine] are within 1.5-fold of each other in IC50: 24.1 nM for the first, 29.2 nM for the second.

First: Cc1nn(C)cc1-c1cc(N2CCOC[C@H]2C)nc2c(-c3ccn[nH]3)nccc12 [Example 249, 4-(1,3-dimethyl-1H-pyrazol-4-yl)-2-[(3R)-3-methylmorpholin-4-yl]-8-(1H-pyrazol-5-yl)-1,7-naphthyridine]
Second: Cc1c(-c2cc(N3CCOC[C@H]3C)nc3c(-c4ccn[nH]4)nccc23)cnn1C [Example 250, 4-(1,5-dimethyl-1H-pyrazol-4-yl)-2-[(3R)-3-methylmorpholin-4-yl]-8-(1H-pyrazol-5-yl)-1,7-naphthyridine]
The IC50 of the first is 2.1-fold higher: 13.7 nM for the first, 6.62 nM for the second. The second is the more potent here.

First: C[C@@H]1COCCN1c1cc(C2CCNCC2)c2ccnc(-c3ccn[nH]3)c2n1 [Example 251, 2-[(3R)-3-methylmorpholin-4-yl]-4-(piperidin-4-yl)-8-(1H-pyrazol-5-yl)-1,7-naphthyridine]
Second: C[C@@H]1COCCN1c1cc(N)c2ccnc(-c3ccn[nH]3)c2n1 [Example 267, 2-[(3R)-3-methylmorpholin-4-yl]-8-(1H-pyrazol-5-yl)-1,7-naphthyridin-4-amine]
The IC50 of the first is 37-fold lower: 27.5 nM for the first, 1010 nM for the second.

Compared with `C[C@@H]1COCCN1c1cc(-c2c[nH]nc2C(F)(F)F)c2ccnc(-c3ccn[nH]3)c2n1` [Example 252, 2-[(3R)-3-methylmorpholin-4-yl]-8-(1H-pyrazol-5-yl)-4-[3-(trifluoromethyl)-1H-pyrazol-4-yl]-1,7-naphthyridine], `C[C@@H]1COCCN1c1cc(-c2cn(C)nc2C(F)(F)F)c2ccnc(-c3ccn[nH]3)c2n1` [Example 259, 2-[(3R)-3-methylmorpholin-4-yl]-4-[1-methyl-3-(trifluoromethyl)-1H-pyrazol-4-yl]-8-(1H-pyrazol-5-yl)-1,7-naphthyridine] is 2.7-fold higher in IC50: 6.45 nM for the first, 17.1 nM for the second. The first is the more potent here.

First: C[C@@H]1COCCN1c1cc(-c2cnn(C3CCC3)c2)c2ccnc(-c3ccn[nH]3)c2n1 [Example 253, 4-(1-cyclobutyl-1H-pyrazol-4-yl)-2-[(3R)-3-methylmorpholin-4-yl]-8-(1H-pyrazol-5-yl)-1,7-naphthyridine]
Second: C[C@@H]1COCCN1c1cc(-c2cnn(C(F)F)c2)c2ccnc(-c3ccn[nH]3)c2n1 [Example 256, 4-[1-(difluoromethyl)-1H-pyrazol-4-yl]-2-[(3R)-3-methylmorpholin-4-yl]-8-(1H-pyrazol-5-yl)-1,7-naphthyridine]
The IC50 of the first is 1.7-fold lower: 33.7 nM for the first, 56.2 nM for the second.

First: C[C@@H]1COCCN1c1cc(-c2cnn(C(C)(C)C)c2)c2ccnc(-c3ccn[nH]3)c2n1 [Example 257, 4-(1-tert-butyl-1H-pyrazol-4-yl)-2-[(3R)-3-methylmorpholin-4-yl]-8-(1H-pyrazol-5-yl)-1,7-naphthyridine]
Second: CC(C)Cn1cc(-c2cc(N3CCOC[C@H]3C)nc3c(-c4ccn[nH]4)nccc23)cn1 [Example 268, 2-[(3R)-3-methylmorpholin-4-yl]-4-[1-(2-methylpropyl)-1H-pyrazol-4-yl]-8-(1H-pyrazol-5-yl)-1,7-naphthyridine]
The IC50 of the first is 3-fold higher: 58.8 nM for the first, 19.3 nM for the second. The second is the more potent here.

Compared with `Cc1nn(C)c(C)c1-c1cc(N2CCOC[C@H]2C)nc2c(-c3ccn[nH]3)nccc12` [Example 258, 2-[(3R)-3-methylmorpholin-4-yl]-8-(1H-pyrazol-5-yl)-4-(1,3,5-trimethyl-1H-pyrazol-4-yl)-1,7-naphthyridine], `Cc1nn(C)c(C)c1-c1cc(N2CCOCC2)nc2c(-c3ccn[nH]3)nccc12` [Example 273, 2-(morpholin-4-yl)-8-(1H-pyrazol-5-yl)-4-(1,3,5-trimethyl-1H-pyrazol-4-yl)-1,7-naphthyridine] is 1.8-fold higher in IC50: 7.66 nM for the first, 14 nM for the second.

Compared with `C[C@@H]1COCCN1c1cc(-c2cnn(CCO)c2)c2ccnc(-c3ccn[nH]3)c2n1` [Example 260, 2-(4-{2-[(3R)-3-methylmorpholin-4-yl]-8-(1H-pyrazol-5-yl)-1,7-naphthyridin-4-yl}-1H-pyrazol-1-yl)ethanol], `C[C@@H]1COCCN1c1cc(-c2ccn(C)c2)c2ccnc(-c3ccn[nH]3)c2n1` [Example 262, 2-[(3R)-3-methylmorpholin-4-yl]-4-(1-methyl-1H-pyrrol-3-yl)-8-(1H-pyrazol-5-yl)-1,7-naphthyridine] is 1.5-fold higher in IC50: 28.1 nM for the first, 42.2 nM for the second. The first is the more potent here.

First: CC(C)n1ccc(-c2cc(N3CCOC[C@H]3C)nc3c(-c4ccn[nH]4)nccc23)n1 [Example 263, 2-[(3R)-3-methylmorpholin-4-yl]-4-[1-(propan-2-yl)-1H-pyrazol-3-yl]-8-(1H-pyrazol-5-yl)-1,7-naphthyridine]
Second: C[C@@H]1COCCN1c1cc(-c2cn[nH]c2)c2ccnc(-c3ccn[nH]3)c2n1 [Example 269, 2-[(3R)-3-methylmorpholin-4-yl]-4-(1H-pyrazol-4-yl)-8-(1H-pyrazol-5-yl)-1,7-naphthyridine]
The IC50 of the first is 1.5-fold higher: 19.3 nM for the first, 12.7 nM for the second.

Compared with `Cc1cc(-c2cc(N3CCOC[C@H]3C)nc3c(-c4ccn[nH]4)nccc23)c(C)n1C` [Example 264, 2-[(3R)-3-methylmorpholin-4-yl]-8-(1H-pyrazol-5-yl)-4-(1,2,5-trimethyl-1H-pyrrol-3-yl)-1,7-naphthyridine], `Cc1n[nH]cc1-c1cc(N2CCOC[C@H]2C)nc2c(-c3ccn[nH]3)nccc12` [Example 266, 2-[(3R)-3-methylmorpholin-4-yl]-4-(3-methyl-1H-pyrazol-4-yl)-8-(1H-pyrazol-5-yl)-1,7-naphthyridine] is 3.1-fold lower in IC50: 25.5 nM for the first, 8.31 nM for the second. The second is the more potent here.

First: Cc1nn(C)cc1-c1cc(N2CCOCC2)nc2c(-c3ccn[nH]3)nccc12 [Example 271, 4-(1,3-dimethyl-1H-pyrazol-4-yl)-2-(morpholin-4-yl)-8-(1H-pyrazol-5-yl)-1,7-naphthyridine]
Second: COCCS(C)(=O)=Nc1cc(N2CCOC[C@H]2C)nc2c(-c3ccn[nH]3)nccc12 (stereo partly drawn) [Example 274, 4-{[(2-methoxyethyl)(methyl)oxido-λ^6-sulfanylidene]amino}-2-[(3R)-3-methylmorpholin-4-yl]-8-(1H-pyrazol-5-yl)-1,7-naphthyridine]
The IC50 of the first is 1.5-fold lower: 41.6 nM for the first, 62.7 nM for the second.

From patent US9549932B2, “2-(morpholin-4-yl)-1,7-naphthyridines” (BAYER PHARMA AKTIENGESELLSCHAFT, priority 2014, dated 2017)
